Results from patent US6906108B2, “Extracts of vetiver oil as repellent and toxicant to ants, ticks, and cockroaches” (Board of Supervisors of Louisiana State University and …, priority 2001, dated 2005).

Tested on: Imported red fire ants, Solenopsis invicta
Test: Fire ant three-chambered container bioassay with treated sand (repellency and mortality)
Assay type: in vivo
Settings: for Percent ants in the sand area after 15 min / Number of ants (% ± SE) in the sand area after 15 min (test after 40 days): mean ± SE; for Living ants found in the sand area over seven days: FIG. 1; for Living ants found in the sand area over 7 days: FIG. 3
Excerpt: Nootkatone was purchased from a commercial source (Lancaster Synthesis Inc. Windham, N.H.). The source of the vetiver oil was The Good Scents Company (Oak Creek, Wis.). Three-chambered clear plastic containers (17×8×4 cm; Pioneer Packaging Co., North Dixon, Ky.) were used to test the effect of nootkatone and vetiver oil on the fire ants. Each rectangular container (17×8×4 cm) was divided into three equal compartments with two inner walls. A small hole (0.5 cm diameter) was melted at the bottom of each of the inner walls to permit fire ant access to all chambers. The top inner sides of the containers were coated with FLUON® (Northern Products, Inc., Woonsocket, R.I.) to prevent ants from escaping. Into the far left chamber, designated the “nest area,” was placed a 55 mm #2 Whatman filter paper circle (Whatman International, Maidstone, England) moistened with 0.5 ml ddH2O to serve as a substrate. For a food source, a second 55 mm #2 Whatman filter paper circle was moistened with 0.5 ml 10% sucrose solution and placed in the far right chamber (“feeding area”). In the middle chamber, 30 g of #4 fine blasting sand (Easy Crete, Inc., Greenwell Springs, La.) moistened with 3 ml ddH2O was added. The sand had previously been treated by mixing with ethanol only (the controls) or with ethanol and solutions of nootkatone or vetiver oil to obtain final concentrations of 10 μg/g sand and 100 μg/g sand. The treated sand was allowed to air-dry for 2 hr in a ventilated hood before placing into the container.
Imported red fire ants, Solenopsis invicta, were collected the day before beginning the experiment from two Louisiana colonies (Colony A and Colony B) whose nests were 50 m apart. For each container, 30 workers were placed in the nest area in a small Petri dish (3.5 cm diameter) with the lid closed initially. The total number of containers was 30; 15 for each colony. For each colony, three replicates were established for each of the following treatments: a control; 10 μg/g nootkatone ([…]), 100 μg/g nootkatone (“Noot-100”), 10 μg/g vetiver oil (“Vet-10”), […].
After the ants were acclimated, the lid on the Petri dish was removed. Ant behavior was observed during the first 15 min for the following: time for the first ant to cross into the middle chamber; time for the first ant to cross into the feeding area; and number of ants in the middle chamber after 5, 10, and 15 min. The plastic containers were kept closed with lids in a thermostatic chamber at 27° C. for one week. Each day at the same time, the numbers of live and dead ants in each chamber were noted.
To test for effectiveness of nootkatone and vetiver oil after the passage of time, the above experiment was repeated 40 days later with sand that had been treated at the same time as the above experiment. For 40 days, the sand had been maintained in separate chambers with non-hermetic lids in a dark room at room temperature. For this second experiment, fire ants were freshly collected from two different Louisiana colonies.
The number of ants, expressed as a percent of the total number in the container, found in the treated area after the first 15 minutes was compared using a two-way ANOVA followed by Newman-Keuls post-hoc test, considering the factors “colony” (A, B) and “treatment” (Control, Noot-100, Noot-10, Vet-100, Vet-10). Data for both the number of live and dead ants (expressed as percent of the total) during the seven days of the experiment were analyzed with 2-way ANOVA for repeated measures followed by Newman-Keuls post-hoc tests, considering the variables “colony” and “treatment” and the variable “day” as the repeated factor. All data were analyzed using Statistica 5.5 (1999 edition, Statsoft Inc., Tulsa, Okla.).

C=C(C)C1CCC2=CC(=O)CC(C)C2(C)C1 (stereo not drawn) [nootkatone, 4,4a,5,6,7,8-hexahydro-6-isopropenyl-4,4a-dimethyl-2(3H)-naphthalone]
Percent ants in the sand area after 15 min (10 μg/g sand, sand treated 2 hr prior): 23.89 ± 3.35 b % | Number of ants (% ± SE) in the sand area after 15 min (test after 40 days) (10 μg/g sand, sand treated 40 days prior): 26.11 ± 3.07 b % | Percent ants in the sand area after 15 min (100 μg/g sand, sand treated 2 hr prior): 13.33 ± 2.42 b % | Number of ants (% ± SE) in the sand area after 15 min (test after 40 days) (100 μg/g sand, sand treated 40 days prior): 13.89 ± 1.99 b % | Living ants found in the sand area over seven days (highest concentration (100 μg/g), sand treated 2 hr prior): Almost no ants | Cumulative mortality over 7 days (highest concentration (100 μg/g), sand treated 2 hr prior, FIG. 2): highest | Living ants found in the sand area over 7 days (highest concentration (100 μg/g), sand treated 40 days prior): Almost no ants | Cumulative mortality over 7 days (highest concentration (100 μg/g), sand treated 40 days prior, FIG. 4): always greatest | Cumulative mortality over 7 days (lower concentration (10 μg/g), sand treated 40 days prior, compared with highest concentration, FIG. 4): significantly lower | Living ants found in the sand area over seven days (lowest concentration (10 μg/g), sand treated 2 hr prior, vs controls): substantially lower numbers of ants | Living ants found in the sand area over 7 days (lowest concentration (10 μg/g), sand treated 40 days prior, vs controls): significantly lower numbers of ants | Effectiveness forty days after the initial application (sand treated 40 days prior): still effective
